In patent US20230133672A1, “FUSION POLYPEPTIDE COMPRISING GDF15 AND POLYPEPTIDE REGION CAPABLE OF O-GLYCOSYLATION” (LG CHEM, LTD., priority 2019, published 2023):

How the values were obtained:
[1] = Single administration: body weight change in DIO mice; assay type: in vivo, Mouse, C57BL/6J-DIO; conditions: single s.c. injection, mean
Experimental: The pharmacological effect of the fusion polypeptides produced and purified in Example 1 above was tested in mice (C57BL/6J, 6-week-old, male, 100 mice; Raonbio).
In the present example, DI0 mouse model (Mouse, C57BL/6J-DIO, male, 100 mice, 14-week-old (obesity feed feeding for 8 weeks)) in which obesity was induced by feeding a high-fat diet into the C57BL/6J mice for 8 weeks was used.
The administration of the test substances HT-ID1-GDF15, HT-ID2-GDF15, and HT-ID3-GDF15 and the control substance Semaglutide (Bachem) was conducted from the next day after group separation, and the administration time was performed at 9 AM every day. Subcutaneous administration was conducted for all the control substance and test substances. For the administration route of the control substance and test substances, subcutaneous administration was selected depending on the clinically scheduled administration route.
For all the control substance and test substances, the amount of the administration solution was set to 5 mL/kg and the administration liquid by individual was calculated on the basis of the recently measured body weight and it was administered by subcutaneous injection once on the start day of the test using a disposable syringe (1 mL). The test substances were administered only once. For comparison, the control group in which the control substance Semaglutide was administered was prepared, and the comparison group in which Semaglutide was administered was administered once a day, and all the administration was progressed from 9 AM.
As for the observation, measurement and test schedule for the test groups, the administration start date was set to Day 0, and 7 days from the administration start date were set to one week of administration.
The body weight of each mouse was measured on the day of the start of administration of the test substances (before administration), and thereafter, the body weight was measured every day (measured up to 9 days), and the amount of the administration solution of the test substances was determined on the basis of the most recently measured body weight.
All the experimental results obtained in the present example were expressed as mean±standard error and tested using Prism5 (version 5.01). One-way analysis of variance (ANOVA) was performed on all data, and when significance was observed, Dunnett's test was performed to find out the test groups with a significant difference from the control group (significance level: two-sided 5% and 1%, 0.1%).

[2] = Pharmacokinetic test, subcutaneous administration to SD rats (serum ELISA, Human GDF15 Immunoassay); assay type: in vivo; conditions: 2 mg/kg subcutaneous, serum
Experimental: For evaluation of pharmacokinetic characteristics when each fusion polypeptide was subcutaneously administered to rats, the fusion polypeptides HT-ID1-GDF15, HT-ID2-GDF15 and HT-ID3-GDF15 were subcutaneously administered into SD rats (Koatech, male, 7-week-old, about 250 g; n=3 each; test group) in an amount of 2 mg/kg, respectively, and about 200 μl of blood was collected through the caudal vein at a predetermined time. The blood collection time was performed before administration, and 1, 2, 4, 8, 24, 48, 72, 96, 168, 240 and 336 hours after administration. As the control group for comparison of pharmacokinetic characteristics, GDF15 (R&D Systems) was subcutaneously administered in an amount of 2 mg/kg by the same method to prepare a GDF15 administration group.
After administering into SD Rats as above, blood collected by time-point was centrifuged to obtain serum, and ELISA was performed using Human GDF15 Immunoassay (SGD150, R&D Systems), and the concentration in the serum was measured depending on the time of each polypeptide.

HT-ID3-GDF15: Fusion polypeptide: His-Tag, TEV cleavage site, three IgD hinges, GS linker, GDF15 (SEQ ID NO: 3)
Body Weight (Group, % of initial) ([1]; Day 0, 10 nmol/kg): 100 % of initial | Body Weight (Group, % of initial) ([1]; Day 1, 10 nmol/kg): 98 % of initial | Body Weight (Group, % of initial) ([1]; Day 2, 10 nmol/kg): 97 % of initial | Body Weight (Group, % of initial) ([1]; Day 3, 10 nmol/kg): 96 % of initial | Body Weight (Group, % of initial) ([1]; Day 4, 10 nmol/kg): 95 % of initial | Body Weight (Group, % of initial) ([1]; Day 5, 10 nmol/kg): 94 % of initial | Body Weight (Group, % of initial) ([1]; Day 6, 10 nmol/kg): 95 % of initial | Body Weight (Group, % of initial) ([1]; Day 7, 10 nmol/kg): 95 % of initial | Body Weight (Group, % of initial) ([1]; Day 8, 10 nmol/kg): 95 % of initial | Body Weight (Group, % of initial) ([1]; Day 9, 10 nmol/kg): 96 % of initial | AUCextp (%) [(AUCinf − AUClast)/AUCinf]*100 [2]: 0.287% | AUClast [2]: 76200 ng·h/mL | Cmax (maximum concentration in blood) [2]: 1110 ng/mL | Tmax (reaching time to maximum concentration in blood) [2]: 24 h | t1/2 (loss half-life) [2]: 26.2 h | AUCinf ([2]; extrapolated to infinity): 76400 ng·h/mL
